Results published in patent publication US20180008637A1, “NATURAL KILLER CELLS AND USES THEREOF” (ANTHROGENESIS CORPORATION, priority 2014, published 2018).

Test system: CD34+ cells
Test: Three-stage method with SR-1 or CH223191 in Stage 1 and Stage 2 media: NK cell expansion, purity, cytotoxicity
Type: cell-based
Conditions: for effects on fold expansion, cell purity (CD56+CD3−), and cytotoxicity of K562 cells at a 10:1 (E:T) ratio: SR-1 and CH223191 compared at 10 μM and 1 μM
Description: CD34^+ cells are cultured in the following medium formulations for the indicated number of days, and aliquots of cells are taken for assessment of cell count, cell viability, characterization of natural killer cell differentiation and functional evaluation.
Stage 1 medium: 90% Stem Cell Growth Medium (SCGM) (CellGro®), 10% Human Serum-AB, supplemented with 4.5 U/mL low molecular weight heparin (LMWH), 25 ng/mL recombinant human thrombopoietin (TPO), 25 ng/mL recombinant human Flt3L, 27 ng/mL recombinant human stem cell factor (SCF), 25 ng/mL recombinant human IL-7, 0.05 ng/mL recombinant human IL-6 (500-fold), 0.25 ng/mL recombinant human granulocyte colony-stimulating factor (G-CSF) (50-fold), 0.01 ng/mL recombinant human granulocyte-macrophage colony-stimulating factor (GM-CSF) (500-fold), 0.10% gentamicin, and 1 to 10 μm StemRegenin-1 (SR-1).
Stage 2 medium: 90% SCGM, 10% Human Serum-AB, supplemented with 4.5 U/mL low molecular weight heparin (LMWH), 25 ng/mL recombinant human Flt3L, 27 ng/mL recombinant human SCF, 25 ng/mL recombinant human IL-7, 20 ng/mL recombinant human IL-15, 0.05 ng/mL recombinant human IL-6 (500-fold), 0.25 ng/mL recombinant human G-CSF (50-fold), 0.01 ng/mL recombinant human GM-CSF (500-fold), 0.10% gentamicin, and 1 to 10 μm SR1.
Stemregenin-1 (SR-1) was evaluated as a component of Stage 1 and Stage 2 media using the three-stage method outlined in Example 1, above, at concentrations of 1 μM, 10 μM, and 30 μM. The same concentrations of CH223191 in the three-stage method were also evaluated.

Compound | effects on fold expansion, cell purity (CD56+CD3−), and cytotoxicity of K562 cells at a 10:1 (E:T) ratio | cytotoxicity of the NK cells produced (SR-1 at 10 μM versus 1 μM and 30 μM in Stage 1 and Stage 2 media)
CC(C)n1cnc2c(NCCc3ccc(O)cc3)nc(-c3csc4ccccc34)nc21 [SR-1, 4-(2-(2-(benzo[b]thien-3-yl)-9-isopropyl-9H-purin-6-ylamino)ethyl)phenol] | Comparable effects | higher cytotoxicity than the other two concentrations tested
Cc1ccccc1/N=N/c1ccc(NC(=O)c2ccnn2C)c(C)c1 [CH223191, 1-methyl-N-(2-methyl-4-(2-(2-methylphenyl)diazenyl)phenyl)-1H-pyrazole-5-carboxamide] | Comparable effects | 
